In US20070037785A1, “Novel dipeptidyl peptidase IV inhibitors used for functionally influencing different cells and treating immunological, infammatory, neuronal, and other diseases” (priority 2003, published 2007):

target: dipeptidyl peptidase IV (Homo sapiens, UniProt P27487); assay: biochemical; details: values marked with "*" are ID50 values; read-out: IC50DPIV, values marked with "*" = ID50
Sequence (P27487 whole entry, species assumed): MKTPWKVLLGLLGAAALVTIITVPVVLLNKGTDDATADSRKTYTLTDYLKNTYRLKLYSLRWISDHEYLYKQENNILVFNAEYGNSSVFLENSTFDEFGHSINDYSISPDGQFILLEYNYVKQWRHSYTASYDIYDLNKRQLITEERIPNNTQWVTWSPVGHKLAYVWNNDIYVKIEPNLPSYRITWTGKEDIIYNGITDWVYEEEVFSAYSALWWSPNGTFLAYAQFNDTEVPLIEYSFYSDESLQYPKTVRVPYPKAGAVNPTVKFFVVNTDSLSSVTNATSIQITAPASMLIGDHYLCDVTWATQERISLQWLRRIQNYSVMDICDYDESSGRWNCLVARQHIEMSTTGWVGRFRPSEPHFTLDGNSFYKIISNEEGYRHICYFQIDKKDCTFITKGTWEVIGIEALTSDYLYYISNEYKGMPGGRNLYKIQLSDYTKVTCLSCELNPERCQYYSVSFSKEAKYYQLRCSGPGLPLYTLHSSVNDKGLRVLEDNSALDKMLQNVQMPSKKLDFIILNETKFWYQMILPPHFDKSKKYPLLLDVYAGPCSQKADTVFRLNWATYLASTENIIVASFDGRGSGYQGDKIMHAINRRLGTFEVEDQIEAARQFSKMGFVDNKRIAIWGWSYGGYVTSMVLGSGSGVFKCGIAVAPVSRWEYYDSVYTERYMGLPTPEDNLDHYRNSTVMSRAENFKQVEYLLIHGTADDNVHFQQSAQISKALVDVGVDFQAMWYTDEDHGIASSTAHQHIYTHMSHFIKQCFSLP

| Structure (SMILES) | IC50 [µM] |
| --- | --- |
| CN(C)c1ccc(N2CC(C)(C)C2=O)cc1 [D1.001] | 1.2 |
| O=C(Nc1ccccc1CC(=O)N1CCCNCC1)c1cccnc1Sc1ccccc1 [D1.002] | 1.4 |
| CCOC(=O)O/N=C(N)/C(N)=N/OC(=O)OCC [D2.006] | 133 |
| CCOC(=O)n1ccc(C(=O)Nc2ccccn2)n1 [D2.007] | 148 |
| Cc1ccccc1NC(=O)C(=O)N/N=C/c1cccc(Cl)c1 [D2.008] | 275 |
| CCC(=O)Oc1cccc(N2C(=O)C3C4C=CC(C3C2=O)C2C(=O)N(c3cccc(OC(=O)CC)c3)C(=O)C42)c1 (stereo not shown) [D3.045] | 4.2 |

same assay, conditions: values without "*" = IC-50; read-out: IC50DPIV

| IC50 [µM] | Structure (SMILES) |
| --- | --- |
| 10.1 | Cc1cccc(-n2c(=O)c3c4c(sc3n3c(SC(C)C(=O)N5CCOCC5)nnc23)COC(C(C)C)C4)c1 (stereo not shown) [D3.012] |
| 10.8 | CCSc1nnc2n(-c3ccc(OC)cc3)c(=O)c3c4c(sc3n12)CCCC4 [D3.013] |
| 12.2 | Brc1cccc(/C=N/Nc2nnc3c(n2)[nH]c2ccccc23)c1 [D3.015] |
| 14.4 | O=C(Nc1ccc(O)c(-c2nc3ccccc3s2)c1)c1ccc([N+](=O)[O-])o1 [D3.018] |
| 15.2 | Cc1ccccc1N1C(=O)c2sc3nc4c(c(=O)n3c2C1=O)CCC4 [D3.020] |
| 15.2 | CCCC(=O)O/N=C1\C(=O)N(c2ccccc2)c2ccccc21 [D3.021] |
| 18.9 | CC(C)C1Cc2c(sc3c2c(=O)n(Cc2ccccc2)c2nnc(SCC(=O)O)n32)CO1 (stereo not shown) [D3.024] |
| 23.8 | CCC(=O)Oc1ccc(C(=O)Nc2ccc(OCC(=O)O)cc2)cc1 [D3.025] |
| 20.2 | COc1cc2c(cc1OC)CC(C)(C)N=C2 [D3.026] |
| 15.2 | CCCn1c(N2CCN(CC(=O)c3c(C)n(C)c4ccccc34)CC2)nc2c1c(=O)[nH]c(=O)n2C [D3.027] |
| 27.2 | O=C1c2ccc(-c3nc4ccccc4c(=O)o3)cc2C(=O)N1c1ccc(Cc2ccc(N3C(=O)c4ccc(-c5nc6ccccc6c(=O)o5)cc4C3=O)cc2)cc1 [D3.032] |
| 27.5 | Cc1nnc(SCC(=O)OCN2C(=O)c3ccccc3C2=O)[nH]1 [D3.033] |
| 52.3 | N#CC1=C(N)C(C#N)(C#N)C(c2ccccc2)C2CNCC=C12 (stereo not shown) [D3.035] |
| 30.9 | N#Cc1c(NC(=O)C(C(F)(F)F)C(F)(F)F)sc2c1CCC2 [D3.038] |
| 31.4 | COc1cc2c(cc1OC)C1(CCCC1)CN(CC#N)C2 [D3.039] |
| 33 | N#Cc1c(NC(=O)c2ccccc2)sc2c1CCCCC2 [D3.042] |
| 37.4 | CCC(=O)Oc1ccc2c(c1)OC1(OC(C)=O)OC(C)CC1=C2C (stereo not shown) [D3.047] |

Second part, the compound before the results:

| Structure (SMILES) | IC50 [µM] |
| --- | --- |
| O=C1NCCCCC1Nc1ccc(N2C(=O)CCCC2=O)cc1[N+](=O)[O-] (stereo not shown) [D1.003] | 34.1 |
| COc1ccc(C(=O)CS/C2=N/CCCCCC2)cc1 [D1.004] | 36.5 |
| O=C1/C(=N\NC(=S)Nc2ccccc2F)c2cc(S(=O)(=O)N3CCOCC3)ccc2N1Cc1ccc(Cl)cc1 [D2.004] | 33.4 |
| CCOC(=O)c1n[nH]c2c1C(=O)N(c1ccc([N+](=O)[O-])cc1)C2=O [D2.005] | 54.5 |
| CC(C)(C)S(=O)(=O)c1ccc2nc3c(n2c1)CCCC3 [D3.003] | 15.6 |
| CN(C)CCNc1nc2c(c(=O)n(C)c(=O)n2C)n1Cc1ccccc1Cl [D3.004] | 7.5 |
| COc1cc2c(cc1OC)CC(C)(C)NC2 [D3.005] | 6 |
| COC(=O)C1=C(N)N2C(=O)CSC2=C(C(=O)OC)C1 [D3.008] | 34.1 |
| CCOC(=O)C1=C2SCC(=O)N2C(N)=C(C#N)C1 [D3.009] | 14.1 |
| Nc1nonc1-n1nnc(C(=O)NN=C2c3ccccc3-c3ccccc32)c1-c1ccccc1 [D3.011] | 10.1 |
| O=C1c2ccccc2-c2c1[n+]([O-])c1c([n+]2[O-])CCCC1 [D3.017] | 14 |
| Cc1ccc(S(=O)(=O)CNC(=S)c2ccc3ccccc3c2)cc1 [D3.019] | 14.5 |
| COc1cc2c(cc1OC)C13CCN4CC5=C(C6=C7CN8CCC9%10c%11cc(OC)c(OC)cc%11N%11C(=O)CC(O6)C(C7CC89)C%11%10)OC6CC(=O)N2C1C6C5CC43 (stereo not shown) [D3.029] | 22.9 |
| CCOC(=O)c1c(C)oc2c1c1c(c3ccccc32)OCN(C2CCS(=O)(=O)C2)C1 (stereo not shown) [D3.046] | 34.2 |
